Results as given in patent publication US20220331414A1, “LIPID COMPOUNDS AND LIPID NANOPARTICLE COMPOSITIONS” (Suzhou Abogen Biosciences Co., Ltd., priority 2020, published 2022).

How the values were obtained:
[1] = Apparent pKa of LNP formulations by TNS fluorescence assay; settings: LNP cationic lipid/DSPC/cholesterol/DMG-PEG 50/10/38.5/1.5 mol %, pH 3 to 9
Procedure: TNS was prepared as a 300 uM stock solution in distilled water. LNP formulations were diluted to 0.1 mg/ml total lipid in 3 mL of buffered solutions containing 50 mM sodium citrate, 50 mM sodium phosphate, 50 mM sodium borate, and 30 mM sodium chloride where the pH ranged from 3 to 9. An aliquot of the TNS solution was added to give a final concentration of 0.1 mg/ml and following vortex mixing fluorescence intensity was measured at room temperature in a Molecular Devices Spectramax iD3 spectrometer using excitation and mission wavelengths of 325 nm and 435 nm. A sigmoidal best fit analysis was applied to the fluorescence data and the pKa value was measured as the pH giving rise to half—maximal fluorescent intensity.

[2] = Encapsulation efficiency of lipid nanoparticles (Quant-it Ribogreen RNA assay); type: physicochemical
Procedure: (§1) Briefly, a cationic lipid provided herein, DSPC, cholesterol, and PEG-lipid were solubilized in ethanol at a molar ratio of 50:10:38.5:1.5, and mRNA were diluted in 10 to 50 mM citrate buffer, pH=4. The LNPs were prepared at a total lipid to mRNA weight ratio of approximately 10:1 to 30:1 by mixing the ethanolic lipid solution with the aqueous mRNA solution at a volume ratio of 1:3 using a microfluidic apparatus, total flow rate ranging from 9-30 mL/min. Ethanol were thereby removed and replaced by DPBS using dialysis. Finally, the lipid nanoparticles were filtered through a 0.2 μm sterile filter.
(§2) Lipid nanoparticle size were determined by dynamic light scattering using a Malvern Zetasizer Nano ZS (Malvern UK) using a 173° backscatter detection mode. The encapsulation efficiency of lipid nanoparticles were determined using a Quant-it Ribogreen RNA quantification assay kit (Thermo Fisher Scientific, UK) according to the manufacturer's instructions.

[3] = Lipid nanoparticle size and polydispersity by dynamic light scattering; type: physicochemical; settings: LNP of cationic lipid/DSPC/cholesterol/PEG-lipid 50:10:38.5:1.5 with mRNA
Procedure: as §1, §2

[4] = LNP of cationic lipid/DSPC/cholesterol/PEG-lipid 50:10:38.5:1.5 with mRNA

| Apparant Pka [1] | Encapsulation Efficiency [2, 4] | polydispersity [3] | size (nm) [3] | Encapsulation Efficiency ([2]; cell printed without % sign) | SMILES |
| --- | --- | --- | --- | --- | --- |
| 6.133 | 94.1% | 0.085 | 95.97 nm | – | CCCCCCC(CCCCCC)COP(=O)(NCCN(CC)CC)OCC(CCCCCC)CCCCCC [Compound 65] |
| 6.52 | 100.0% | 0.408 | 69.38 nm | – | CCCCCCCCCCCCCOP(=O)(NCCCN(C)C)OCCCCCCCC(=O)OC(CCCCCCCC)CCCCCCCC (stereo not drawn) [Compound 39] |
| 7.45 | 98.4% | 0.258 | 58.48 nm | – | CCCCCCCCCCCCCOP(=O)(NCCN1CCCCC1)OCCCCCCCC(=O)OC(CCCCCCCC)CCCCCCCC (stereo not drawn) [Compound 34] |
| 6.259 | 94.2% | 0.172 | 57.31 nm | – | CCCCCCCCC(CCCCCCCC)COP(=O)(NCCN(CC)CC)OCC(CCCCCCCC)CCCCCCCC [Compound 80] |
| 3.726 | 55.0% | 0.179 | 85.33 nm | – | CCCCCCCCC(CCCCCC)COP(=O)(NCCN1CCC(F)(F)C1)OCC(CCCCCC)CCCCCCCC (stereo not drawn) [Compound 60] |
| 5.969 | 95.2% | 0.234 | 63.03 nm | – | CCCCCCCCCCC(CCCCCCCC)COP(=O)(NCCN(CC)CC)OCC(CCCCCCCC)CCCCCCCCCC (stereo not drawn) [Compound 78] |
| 7.77 | 99.6% | 0.122 | 80.83 nm | – | CCCCCCCCCOC(=O)CCCCCCCOP(=O)(NCCCN(C)C)OCCCCCCCC(=O)OC(CCCCCCCC)CCCCCCCC (stereo not drawn) [Compound 40] |
| 6.153 | 93.8% | 0.298 | 53.76 nm | – | CCCCCCCCC(CCC)COP(=O)(NCCN(CC)CC)OCC(CCC)CCCCCCCC (stereo not drawn) [Compound 70] |
| 5.21 | 91.8% | 0.159 | 62.39 nm | – | CCCCCCCCC(CCCCCC)COP(=O)(NCCCN1CCOCC1)OCC(CCCCCC)CCCCCCCC (stereo not drawn) [Compound 31] |
| 6.94 | 96.2% | 0.116 | 138.3 nm | – | CCCCCCCCCCCCCOP(=O)(NCCCN(C)C)OCCCCCCCCCCCCC [Compound 10] |
| 6.571 | 49.0% | 0.205 | 179.7 nm | – | CC/C=C\CCC(CC/C=C\CC)COP(=O)(NCCN(CC)CC)OCC(CC/C=C\CC)CC/C=C\CC [Compound 88] |
| 7.74 | 98.2% | 0.091 | 128.5 nm | – | CCCCCCCCCOP(=O)(NCCN1CCCCC1)OCCCCCCCC(=O)OC(CCCCCCCC)CCCCCCCC (stereo not drawn) [Compound 33] |
| 5.17 | 94.0% | 0.187 | 51.72 nm | – | CCCCCCCCC(CCCCCCCC)OC(=O)CCCCCCCOP(=O)(NCCCCN(C)C)OCCCCCCC (stereo not drawn) [Compound 44] |
| 6.47 | 95.1% | 0.191 | 58.02 nm | – | CCCCCCCCC(CCCCCC)COP(=O)(NCCN(CC)CC)OCC(CCCCCC)CCCCCCCC (stereo not drawn) [Compound 49] |
| 5.86 | 95.6% | 0.154 | 73.94 nm | – | CCCCCCCCC(CCCCC)COP(=O)(NCCN(CC)CC)OCC(CCCCC)CCCCCCCC (stereo not drawn) [Compound 72] |
| 5.681 | 88.8% | 0.057 | 97.61 nm | – | CCCCCCCCC(CCCCCC)COP(=O)(NCCN(CCO)C1CCCC1)OCC(CCCCCC)CCCCCCCC (stereo not drawn) [Compound 58] |
| 5.18 | 75.7% | 0.135 | 83.11 nm | – | CCCCCCCCC(CCCCCC)COP(=O)(NCCCN1CCCCC1)OCC(CCCCCC)CCCCCCCC (stereo not drawn) [Compound 27] |

| Apparant Pka [1] | Encapsulation Efficiency [2, 4] | polydispersity [3] | size (nm) [3] | Encapsulation Efficiency ([2]; cell printed without % sign) | SMILES |
| --- | --- | --- | --- | --- | --- |
| 6.66 | 75.52% | 0.167 | 88.45 nm | – | CCCCCCCCC(CCCCCC)COP(=O)(NCCN(CCCC)CCCC)OCC(CCCCCC)CCCCCCCC (stereo not drawn) [Compound 51] |
| 5.27 | – | 0.071 | 73.53 nm | 0.864 | CCCCCCCCC(CCCCCC)COP(=O)(NCCN(CCO)C1CCCCC1)OCC(CCCCCC)CCCCCCCC (stereo not drawn) [Compound 47] |
| 5.51 | 58.9% | 0.09 | 84.8 nm | – | CCCCCCCCC(CCCCCC)COP(=O)(NCCCN1CCCCCC1)OCC(CCCCCC)CCCCCCCC (stereo not drawn) [Compound 29] |
| 5.484 | 89.9% | 0.175 | 52.13 nm | – | CCCCCCCC(CCCCCCC)COP(=O)(NCCN(CC)CC)OCC(CCCCCCC)CCCCCCC [Compound 84] |
| 9.42 | 99.9% | 0.245 | 62.7 nm | – | CCCCCCCCCCCCCOP(=O)(NCCCN1CCCCC1)OCCCCCCCC(=O)OC(CCCCCCCC)CCCCCCCC (stereo not drawn) [Compound 35] |
| 6.457 | 96.3% | 0.053 | 71.16 nm | – | CCCCCCCCCCC(CCCCCCCC)COP(=O)(NCCN1CCCC1)OCC(CCCCCCCC)CCCCCCCCCC (stereo not drawn) [Compound 79] |
| 7.37 | 98.7% | 0.101 | 79.13 nm | – | CCCCCCCCC(CCCCCC)COP(=O)(NCCCCN(C)C)OCC(CCCCCC)CCCCCCCC (stereo not drawn) [Compound 22] |
| 6.149 | 94.4% | 0.141 | 54.17 nm | – | CCCCCCCCCCC(CCCCCC)COP(=O)(NCCN(CC)CC)OCC(CCCCCC)CCCCCCCCCC (stereo not drawn) [Compound 66] |
| 5.615 | 90.9% | 0.132 | 62.03 nm | – | CCCCCCCCC(CCCCCC)COP(=O)(NCCN(CCO)CCCCC)OCC(CCCCCC)CCCCCCCC (stereo not drawn) [Compound 55] |
| 6.63 | 98.0% | 0.131 | 81.53 nm | – | CCCCCCCCC(CCCCCC)COP(=O)(NCCN1CCCC1)OCC(CCCCCC)CCCCCCCC (stereo not drawn) [Compound 24] |
| 5.90 | 73.6% | 0.059 | 104.3 nm | – | CCCCCCCCCCCCCOP(=O)(NCCN1CCOCC1)OCCCCCCCCCCCCC [Compound 15] |
| 7.003 | 91.4% | 0.101 | 70.54 nm | – | CCCCCCCCC(CCCC)COP(=O)(NCCN1CCCC1)OCC(CCCC)CCCCCCCC (stereo not drawn) [Compound 73] |
| 7.20 | 96.3% | 0.1 | 73.54 nm | – | CCCCCCCCC(CCCCCC)COP(=O)(NCCCN(C)C)OCC(CCCCCC)CCCCCCCC (stereo not drawn) [Compound 7] |
| 7.408 | 87.1% | 0.355 | 68.3 nm | – | CCCCCCCCC(C)COP(=O)(NCCN(CC)CC)OCC(C)CCCCCCCC (stereo not drawn) [Compound 69] |
| 6.097 | 86.9% | 0.138 | 70.5 nm | – | CCCCCCC(CCCCCC)COP(=O)(NCCN(CC)CC)OCC(CCCCCC)CCCCCC [Compound 82] |
| 5.309 | 85.2% | 0.138 | 63.36 nm | – | CCCCCCCCC(CCCCCC)COP(=O)(OCCN1CCCCC1)OCC(CCCCCC)CCCCCCCC (stereo not drawn) [Compound 77] |
| 7.104 | 94.4% | 0.108 | 69.18 nm | – | CCCCCCCCC(CCC)COP(=O)(NCCN1CCCC1)OCC(CCC)CCCCCCCC (stereo not drawn) [Compound 71] |

| SMILES | Apparant Pka [1] | Encapsulation Efficiency [2, 4] | polydispersity [3] | size (nm) [3] | Encapsulation Efficiency ([2]; cell printed without % sign) |
| --- | --- | --- | --- | --- | --- |
| CCCCCCCCCOP(=O)(NCCN(C)C)OCCCCCCCCC [Compound 3] | 8.59 | 61.6% | 0.154 | 53.41 nm | – |
| CCCCCCCCCOP(=O)(NCCCCN(C)C)OCCCCCCCCC [Compound 1] | 7.65 | 90.3% | 0.074 | 54.18 nm | – |
| CCCCCCCCCCCCCOP(=O)(OCCCCCCCCCCCCC)N1CCC(N2CCOCC2)CC1 [Compound 19] | 6.38 | 73.7% | 0.086 | 110.8 nm | – |
| CCCCCCCCCOP(=O)(NCCCN(C)C)OCCCCCCCCC [Compound 4] | 8.26 | 73.2% | 0.055 | 72.06 nm | – |
| CCCCCCCCCCCCCOP(=O)(OCCCCCCCCCCCCC)N1CC2(CCN(C)CC2)C1 [Compound 20] | 5.81 | 94.2% | 0.068 | 92.15 nm | – |
